Source: patent publication US10821115B2, “Compounds that inhibit Mcl-1 protein” (priority 2017, dated 2020)
pIC50: −log10 of the molar value. Like-named read-outs stand apart in the source and are kept apart here.

Tested on: human multiple myeloma cell line, OPM-2
Assay: Cell viability assay (OPM-2 10 FBS), CellTiter-Glo
Type: cell-based
Method in brief: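 Serially diluted test compounds are incubated 16 h with cells (3000/well) in RPMI 1640 supplemented with 10% FBS. Viability is then measured by luminescence and IC50 calculated by 4-parameter logistic fit.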

[1] = Homo sapiens, OPM-2, 16 h, read-out: OPM-2 10% FBS IC50 IP, OPM-2 cells, 10% FBS, 16 h, CellTiter-Glo
[2] = read-out: OPM-2 10% FBS IC50 IP, OPM-2 cells, 10% FBS, 16 h incubation
[3] = Homo sapiens, OPM-2, 16 h, read-out: OPM-2 10% FBS IC50 IP, OPM-2 cells, 10% FBS, 16 h incubation

With `CO[C@@]1(CC(=O)NCCO)/C=C/C[C@H](C)[C@@H](C)S(=O)(=O)NC(=O)c2ccc3c(c2)N(C[C@@H]2CC[C@H]21)C[C@@]1(CCCc2cc(Cl)ccc21)CO3` [Example 100465, 2-((1S,3′R,6′R,7′S,8′E,11′S,12′R)-6-chloro-7′-methoxy-11′,12′-dimethyl-13′,13′-dioxido-15′-oxo-3,4-dihydro-2H-spiro[naphthalene-1,22′-[20]oxa[13]thia[1,14]diazatetracyclo [14.7.2.0~3,6~.0~19,24~]pentacosa[8,16,18,24]tetraen]-7′-yl)-N-(2-hydroxyethyl)acetamide] the pIC50 [1] was 6.14.

`CO[C@@]1(CN2CCN3CCN(C(C)=O)C[C@@H]3C2)/C=C/C[C@H](C)[C@@H](C)S(=O)(=O)NC(=O)c2ccc3c(c2)N(C[C@@H]2CC[C@H]21)C[C@@]1(CCCc2cc(Cl)ccc21)CO3` (single isomer, unassigned) [Example 225] gave a pIC50 [2] of 6.55.

In the case of `CO[C@@]1(CN2CCN(C3CCOCC3)CC2)/C=C/C[C@H](C)[C@@H](C)S(=O)(=O)NC(=O)c2ccc3c(c2)N(C[C@@H]2CC[C@H]21)C[C@@]1(CCCc2cc(Cl)ccc21)CO3` [Example 262, (1S,3′R,6′R,7′S,8′E,11′S,12′R)-6-chloro-7′-methoxy-11′,12′-dimethyl-7′-((4-(tetrahydro-2H-pyran-4-yl)-1-piperazinyl)methyl)-3,4-dihydro-2H,15′H-spiro[naphthalene-1,22′-[20]oxa[13]thia[1,14]diazatetracyclo [14.7.2.0~3,6~.0~19,24~]pentacosa[8,16,18,24]tetraen]-15′-one 13′,13′-dioxide], the pIC50 [3] was 7.05.

For `CO[C@]1(C(=O)N(C)C)/C=C/C[C@H](C)[C@@H](C)S(=O)(=O)NC(=O)c2ccc3c(c2)N(C[C@@H]2CC[C@H]21)C[C@@]1(CCCc2cc(Cl)ccc21)CO3` [Example 177, (1S,3′R,6′R,7′R,8′E,11′S,12′R)-6-chloro-7′-methoxy-N,N, 11′,12′-tetramethyl-15′-oxo-3,4-dihydro-2H-spiro[naphthalene-1,22′-[20]oxa[13]thia[1,14]diazatetracyclo[14.7.2.0-3,6˜.0˜19,24˜]pentacosa[8,16,18,24]tetraene]-7′-carboxamide 13′,13′-dioxide], the pIC50 [2] was 6.21.

In the case of `C[C@@H]1[C@@H](C)C/C=C/[C@](O)(c2ccc(F)nc2)[C@@H]2CC[C@H]2CN2C[C@@]3(CCCc4cc(Cl)ccc43)COc3ccc(cc32)C(=O)NS1(=O)=O` [Example 100420, (1S,3′R,6′R,7′R,8′E,11′S,12′R)-6-chloro-7′-(6-fluoro-3-pyridinyl)-7′-hydroxy-11′,12′-dimethyl-3,4-dihydro-2H,15′H-spiro[naphthalene-1,22′-[20]oxa[13]thia[1,14]diazatetracyclo [14.7.2.0~3,6~.0~19,24~]pentacosa[8,16,18,24]tetraen]-15′-one 13′,13′-dioxide], the pIC50 [1] was 6.79.

Work on `CO[C@@]1(CN2CCN(CCS(C)(=O)=O)CC2)/C=C/C[C@H](C)[C@@H](C)S(=O)(=O)NC(=O)c2ccc3c(c2)N(C[C@@H]2CC[C@H]21)C[C@@]1(CCCc2cc(Cl)ccc21)CO3` [Example 81] yielded a pIC50 [3] of 6.95.

`CCO[C@]1(CN2CCN(C(C)C)[C@H](C)C2)/C=C/C[C@H](C)[C@@H](C)S(=O)(=O)NC(=O)c2ccc3c(c2)N(C[C@@H]2CC[C@H]21)C[C@@]1(CCCc2cc(Cl)ccc21)CO3` [Example 9, (1 S,3′R,6′R,7′R,8′E,11′S, 12′R)-6-CHLORO-7′-ETHOXY-11′,12′-DIMETHYL-7′-(((3R)-3-METHYL-4-(1-METHYLETHYL)-1-PIPERAZINYL)METHYL)-3,4-DIHYDRO-2H, 15′H-SPIRO[NAPHTHALENE-1,22′-[20]OXA[13]THIA[1,14]DIAZATETRACYCLO[14.7.2.0-3,6˜.0˜19,24˜]PENT ACOSA[8,16,18,24]TETRAEN]-15′-ONE 13′,13′-DIOXIDE] showed a pIC50 [2] of 7.30.
